# How the values were obtained:
# PPARα = target: T1, PPARα (Homo sapiens, UniProt Q07869); type: cell-based
# T1 construct: expressed in transfected cells; host or cells: COS-7
# PPARδ = target: T2, PPARδ (Homo sapiens, UniProt Q03181); experiment: PPAR transactivation assay in COS-7 cells (Gal4-hPPAR-LBD, luciferase); type: cell-based; conditions: i.a. = inactive
# T2 construct: expressed in transfected cells; host or cells: COS-7
# [1] = Water solubility approximation; type: physicochemical; conditions: aqueous with cosolvent or surfactant or cyclodextrin, kinetic from dmso stock; PBS pH 7.4, 0.01% Polysorbate 20, 1% DMSO; precipitation at 650 nm; read-out: w.s. (water solubility)
# Method: PBS at pH 7.4 with 0.01% Polysorbate 20 (Tween) was combined with 1% of a DMSO solution of the inquired compound in a 96-well transparent flat bottom microtiter plate. Precipitation of the compound was measured at 650 nm with a Tecan Infinite 200 (Tecan Group Ltd, Mannedorf, Switzerland).
# HepG2 cells = experiment: WST-1 cytotoxicity assay; type: cell-based; conditions: up to a concentration of 30 μM; 48 hours
# Method: The WST-1 assay (Roche Diagnostic GmbH, Mannheim, Germany) was used to determine the cell viability after treatment with the compounds. For this purpose, Hela and HepG2 cells were seeded each in 96-well plates at a density of 1×10^4 per well in DMEM with Phenolred and in presence of 10% FCS. After 24 hours the medium was changed. Fresh DMEM with 10% FCS was added and the cells were treated with the compounds for 48 hours. Cell viability was assessed according to the manufacturer's protocol using a microplate reader (infinity M200, Tecan Group Ltd., Crailsheim, Germany). All experiments were performed at least in triplicate.
# [2] = In vitro drug metabolism in rat liver microsomes; type: in vitro ADME; conditions: 10 μM, 1 h incubation
# Method: The incubation was performed in a shaking water bath at 37° C. The reaction was stopped by the addition of 500 μl ice-cold methanol at 0, 15, 30 and 60 min. The samples were centrifuged at 10 000 g for 5 min at 4° C. The supernatants were analysed and quantified by HPLC. Control samples were always performed to check the stability of the compounds in the reaction mixture. First control was without NADPH, which is needed for the enzymatic activity of the microsomes. Second control was with inactivated microsomes (microsomes that were incubated for 20 min at 90° C.). Third control was without test compounds (to determine the baseline). As positive control, a solution of 7-ethoxycoumarin (1 mM) was used. The final concentration of the control compound, under assay conditions, was again 10 μM. The amounts of the test compounds were quantified by an external calibration curve.
# hFFA1 = target: T3, hFFA1 (Homo sapiens, UniProt O14842); experiment: IP1 accumulation in HEK293 cells stably expressing hFFA1; type: cell-based; conditions: read-out: pEC50 (IP1 accumulation) (converted)
# T3 construct: expressed in transfected cells; host or cells: Flp-In T-REx 293 (HEK293), doxycycline-induced
# T3 sequence (O14842 whole entry): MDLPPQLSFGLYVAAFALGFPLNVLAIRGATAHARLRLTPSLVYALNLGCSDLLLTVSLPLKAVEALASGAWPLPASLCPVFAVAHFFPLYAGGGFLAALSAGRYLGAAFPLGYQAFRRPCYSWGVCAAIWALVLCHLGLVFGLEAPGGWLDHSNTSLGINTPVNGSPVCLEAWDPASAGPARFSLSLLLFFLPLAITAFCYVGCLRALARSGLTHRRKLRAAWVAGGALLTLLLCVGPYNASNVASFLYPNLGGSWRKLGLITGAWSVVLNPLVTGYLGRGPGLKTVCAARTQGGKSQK
# Method: (§1) Stably transfected Flp-In™ T-REx™ 293 cells (Invitrogen) were cultured in Dulbecco's modified Eagles's medium (DMEM) containing 10% (v/v) fetal bovine serum (FBS), penicillin (100 U/mL), streptomycin ([…]), Hygromycin B (100 μg/mL) and Blasticidin (15 μg/mL) at 37° C. and 5% CO2. All experiments were carried out after inducing receptor expression with 1 μg/mL doxycycline for approximately 18 hours, according to manufacturer's instructions (Invitrogen).
# (§2) Compound activity on the Gq coupled FFA1 receptor constructs was assessed by measuring intracellular level of inositolmonophosphate (IPI) using the HTRF®-IP-One kit (Cisbio International) according to manufacturer's instructions. Briefly, 10,000 receptor expressing cells were seeded into a 384 well microplate and incubated 20 minutes at 37° C. […] Data analysis and nonlinear regression curve fitting were carried out using the GraphPad Prism® software v5.04 (Graphpad Software).
# mFFA1 = target: T4, mFFA1 (Mus musculus, UniProt Q76JU9); experiment: IP1 accumulation in HEK293 cells stably expressing mFFA1; type: cell-based; conditions: read-out: pEC50 (IP1 accumulation) (converted)
# T4 construct: expressed in transfected cells; host or cells: Flp-In T-REx 293 (HEK293), doxycycline-induced
# T4 sequence (Q76JU9 whole entry): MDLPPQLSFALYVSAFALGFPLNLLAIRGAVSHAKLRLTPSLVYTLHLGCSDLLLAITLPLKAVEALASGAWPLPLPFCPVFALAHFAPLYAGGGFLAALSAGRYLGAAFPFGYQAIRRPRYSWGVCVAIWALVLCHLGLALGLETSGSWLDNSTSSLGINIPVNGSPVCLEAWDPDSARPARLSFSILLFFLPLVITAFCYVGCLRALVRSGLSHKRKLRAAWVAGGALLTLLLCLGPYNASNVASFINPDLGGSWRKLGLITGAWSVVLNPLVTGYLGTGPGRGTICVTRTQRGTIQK
# Method: as §1, §2
# SHROB rats = test system: SHROB rats
# Method: SHROB were treated with RB394 (10 mg/kg/d, p.o.; […]) for 8-weeks.
# Metabolic syndrome (MetS) is a cluster of symptoms including hypertension, hyperglycemia, hypertriglyceridemia and obesity. […] The inventors hypothesized that the development of a dual modulator (a drug that combines two pharmacophores) could treat more than one symptom of MetS and prevent renal injury. […] The inventors synthesized a novel dual sEH inhibitor-PPAR-γ agonist (sEHi/PPAR-γ), RB394 and investigated its efficacy in a rat model of MetS (see FIG. 21). Three groups of rats were utilized; Group 1: Wister Kyoto (WKY)+Vehicle (n=6); Group 2: Spontaneously Hypertensive Obese (SHROB)+Vehicle (n=5); Group 3: SHROB+RB394 (10 mg/kg/d p.o.; n=5). RB394 or vehicle treatments were administered for 56 days, blood pressure measured, and urine and kidney tissues collected at the end of treatment period. […] Kidney injury was assessed from albuminuria, and also from histopathological analysis of renal tubular cast formation, collagen formation and glomerular injury using Periodic Acid Schiff and Picro Sirius Red staining.
# The Medical College of Wisconsin Institutional Animal Care and Use Committee according to the National Institutes of Health Guidelines for Care and Use of Laboratory Animals approved all animal studies. Eight to nine-week-old male Wistar-Kyoto (WKY), and SHROB were purchased from Charles River Laboratories (Wilmington, Mass., USA). Animals were housed in the Biomedical Resource Center at Medical College of Wisconsin with a 12 hour light-dark cycle and free access to tap water along with rat chow. WKY rats (n=6) were used as a control group as a comparison for disease progression. SHROB rats were divided into 2 groups. Group 1 received vehicle (n=5) and Group 2 received RB394 (10 mg/kg/d p.o.; n=5) for 8 weeks. Rats were weighed and systolic blood pressure was measured by tail-cuff plethysmography.
# Intra-peritoneal glucose tolerance test was carried out during the 8-week treatment protocol in rats that were fasted overnight and injected with glucose (2 g/kg i.p.). Blood samples were collected from the tail vein before and at different time points after glucose injection. The tail vein blood glucose levels were measured using a glucometer LifeScan (Miltipas, Calif., USA).
# Urinary biochemical analysis was done using commercially available ELISA kits; albumin and from Exocell (Philadelphia, Pa.). Rats were anesthetized using isoflorane and plasma collected from the artery. Triglyceride, cholesterol, protein and creatinine assay kits were from Cayman (Ann Arbor, Mich., USA), and free fatty acids from Zen-Bio Inc. (Research Triangle Park, N.C.). Blood glucose levels from the tail vein were measured using a glucometer.
# The kidney was excised and immersion-fixed in 10% neutral buffered formalin and paraffin embedded. The embedded kidney and pancreas sections were cut into 4 μm slices for use in histology. Formalin-fixed paraffin-embedded tissue slices were deparaffinized, re-hydrated, and kidney tissue slices were stained with Periodic Acid-Schiff (PAS) and Masson's Trichorme. Glomerulosclerosis and mesangial matrix expansion were blindly scored from kidney sections stained with PAS staining using the following numeric scale: 0=no damage; +1=very mild; +2=mild; +3=moderate and +4=severe. Two observers in a blinded fashion conducted histological analysis at a magnification of ×200 using Nikon NIS Elements Software (Nikon Instruments Inc., Melville, N.Y., USA). Proteinaceous cast in the kidney was also determined in PAS stained kidney sections at magnification of ×200 using Nikon NIS Elements Software. The percentage area positive for proteinaceous cast was calculated from the mean of eight cortical and five medullary fields for each animal. Fibrosis in the kidney was determined in kidney sections stained with Masson's Trichorme at a magnification of ×200.
# 3T3-L1 fibroblasts = experiment: Adipocyte differentiation of murine 3T3-L1 cells (Oil Red O staining); type: cell-based; conditions: 1c 1-10 μM; CIU 10 μM
# Method: 3T3-L1 cells were subcultured in DMEM containing 10% newborn calf serum in a humidified atmosphere at 37° C., 5% CO2. […] Briefly, cells were seeded in 6-well plates (2.5×10^6/well). Differentiation was started at day 3 by addition of 1 μg/ml insulin, 0.25 dexamethasone and 0.5 mM isobutylmethylxanthine in DMEM supplemented with 10% fetal calf serum. At day 5 medium was replaced by medium containing only insulin for 2 more days. After this, cells were kept for lipid droplet accumulation in basal medium without additions until day 15.
# [3] = test system: human primary preadipocytes; experiment: Adipocyte differentiation of human primary preadipocytes (Oil Red O staining); type: cell-based; conditions: 1c 1-10 μM; CIU 10 μM
# Method: (§3) Human primary preadipocytes were obtained from stromal vascular fraction of subcutaneous fat from anonymous donors undergoing elective cosmetic surgery. Adipose tissue was digested by collagenase solution (0.3 U/ml in 1% BSA/PBS) for 45 min at 37° C. with constant shaking. Floating mature adipocytes were removed and the pellet containing the stromal vascular fraction was resuspended in erythrocyte lysis buffer. […] After 4 days the medium was changed to 3FC medium (QuickDiff medium without dexamethasone, IBMX and rosiglitazone). Adipocytes were cultured for additional 14 days before medium was changed to basal medium consisting of DMEM/Ham's F12 with biotin and panthotenate. This investigation conforms to the ethical principles outlined in the Declaration of Helsinki and was approved by the university ethics committee (Ethik-Kommission des Fachbereichs Medizin der Goethe-Universitat Frankfurt am Main). Total RNA was isolated using PeqGold RNAPure (Peqlab) according to manufacturer's instructions and was transcribed to cDNA using Maxima First Strand cDNA synthesis kit (Thermo Scientific), following manufacturer's instructions. Quantitative PCR was performed with iQ SYBR green Supermix (Bio-Rad) using a CFX96 (Bio-Rad) system. Expression was normalized to actin RNA.
# recombinant human sEH = target: T5, recombinant human sEH (Homo sapiens, UniProt P34913); experiment: biochemical; conditions: read-out: IC50 sEH (converted)
# T5 sequence (P34913 1-555): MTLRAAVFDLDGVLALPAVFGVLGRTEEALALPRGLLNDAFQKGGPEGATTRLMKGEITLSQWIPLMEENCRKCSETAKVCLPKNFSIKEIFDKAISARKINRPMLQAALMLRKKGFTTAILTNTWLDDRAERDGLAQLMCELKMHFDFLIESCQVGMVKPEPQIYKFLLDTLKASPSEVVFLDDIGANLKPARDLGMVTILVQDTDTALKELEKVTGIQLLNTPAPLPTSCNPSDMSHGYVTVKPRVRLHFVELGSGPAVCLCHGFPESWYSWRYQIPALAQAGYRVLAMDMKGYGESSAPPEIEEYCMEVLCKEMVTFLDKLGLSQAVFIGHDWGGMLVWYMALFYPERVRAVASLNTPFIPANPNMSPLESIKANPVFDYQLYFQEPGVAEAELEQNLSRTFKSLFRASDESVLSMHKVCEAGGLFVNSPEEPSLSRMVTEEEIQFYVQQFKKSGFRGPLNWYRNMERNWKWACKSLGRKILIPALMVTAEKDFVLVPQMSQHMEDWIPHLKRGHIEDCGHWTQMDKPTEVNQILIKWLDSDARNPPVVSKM
# [4] = test system: PPARγ target genes (GLUT4, Adiponectin, FABP4, LPL); experiment: qPCR of PPARγ target genes in differentiated 3T3-L1 cells; type: cell-based, murine; conditions: 1-10 μM; compared to rosiglitazone 2 μM
# Method: 3T3-L1 cells were subcultured in DMEM containing 10% newborn calf serum in a humidified atmosphere at 37° C., 5% CO2. […] Briefly, cells were seeded in 6-well plates (2.5×10^6/well). Differentiation was started at day 3 by addition of 1 μg/ml insulin, 0.25 dexamethasone and 0.5 mM isobutylmethylxanthine in DMEM supplemented with 10% fetal calf serum. At day 5 medium was replaced by medium containing only insulin for 2 more days. After this, cells were kept for lipid droplet accumulation in basal medium without additions until day 15. […] Differentiation of 3T3-L1 cells was confirmed by Oil Red 0 staining. Cells were washed with PBS and subsequently fixed for 60 minutes with a formaldehyde solution (4% in PBS). After this, cells were rinsed with 60% isopropanol and incubated with Oil Red 0 solution (0.3%) for 120 minutes.
# 3T3-L1 cells or homogenized mouse tissues were lysed using TRIzol® reagent (Ambion, life technologies, Carlsbad, USA) and mRNA was isolated following the manufacturers protocol. DNA contaminations were digested using DNAse (DNase I, RNase-free Kit; Thermo Scientific, Waltham, USA) and mRNA concentrations were measured with a NANODROP2000 spectrophotometer (Thermo Scientific, Waltham, USA). […] All samples were measured in triplicates and were analyzed using the ΔΔCT method.
# [5] = test system: PPARγ target genes (GLUT4, Adiponectin, FABP4, LPL); experiment: qPCR of PPARγ target genes in human primary adipocytes; type: cell-based
# Method: as §3
# PPARγ target gene CD36 = experiment: CD36 expression in mouse liver (qPCR); type: in vivo; conditions: single p.o. 30 mg/kg bw, 8 h; compared to non-treated mice
# Method: 3T3-L1 cells or homogenized mouse tissues were lysed using TRIzol® reagent (Ambion, life technologies, Carlsbad, USA) and mRNA was isolated following the manufacturers protocol. DNA contaminations were digested using DNAse (DNase I, RNase-free Kit; Thermo Scientific, Waltham, USA) and mRNA concentrations were measured with a NANODROP2000 spectrophotometer (Thermo Scientific, Waltham, USA). Subsequently, reverse transcription was performed using the High Capacity RNA-to-cDNA Kit (Applied Biosystems, Foster City, USA). PCR was performed using specific primers for GLUT-4, FABP-4, LPL, adiponectin and CD36 (shown under supporting informations) with a StepOnePlus Real-Time PCR System (Applied Biosystems, Foster City, USA). NoNo (3T3-L1) and β-Actin (mouse tissue) were used as reference genes. All samples were measured in triplicates and were analyzed using the ΔΔCT method.
# [6] = after p.o. 30 mg/kg bw of 1c
# Method: Blood was sampled 15 min, 30 min, 1 h, 2 h, 4 h and 8 h after test item application and only 8 h after vehicle application. Each drug treated mouse was sampled twice (0.25 and 0.5 h, 1 and 2 h, 4 and 8 h) via retro orbital puncture. Blood was collected in tubes containing lithium-heparin, stored on ice and subsequently centrifuged at 6000 rpm for 10 minutes at 4° C. (Heraeus biofuge fresco). The plasma was prepared within 45 min after sampling and kept at −20° C. until being assayed. For further kinetic and dynamic analysis the tissues (brain, liver, abdominal fat) were collected 30 min, 2h and 8 h post dose, after the second plasma sampling of each drug treated mouse. Tissue of the vehicle group was sampled only once, 8 h post dose. A volume of 40 μl acetonitrile containing the internal standard (300 ng/ml Diazepam) was added to 20 μl of mouse plasma sample, plasma calibration standard and plasma QC samples. Samples were vigorously shaken and centrifuged for 10 minutes at 6000 g and 20° C. The particle free supernatant was diluted 1:1 with water. An aliquot was transferred to 200 μl sampler vials and subsequently subjected to LC MS with an injection volume of 20 pl. The brain samples were homogenized in PBS (1+1, w/v) using the Precellys 24/Dual homogenizer. A volume of 20 μl of the brain homogenate was mixed (1+1 v/v/) with 20 μl mouse blank plasma. Then 80 μl acetonitrile containing the internal standard (300 ng/ml Diazepam) were added. Samples were vigorously shaken and centrifuged for 10 minutes at 6000 g and 20° C. The particle free supernatant was diluted 1:1 with water. An aliquot was transferred to 200 μl sampler vials and subsequently subjected to LC MS with an injection volume of 20 μl. Mass spectrometry was performed on a TSQ Quantum Discovery Max triple quadrupole mass spectrometer equipped with an electrospray (ESI) interface (Thermo Fisher Scientific, USA) connected to a PC running the standard software Xcalibur 2.0.7. […]
# [7] = SHROB + RB394 10 mg/kg/d p.o., 8 weeks
# [8] = SHROB + RB394 10 mg/kg/d p.o., 56 days
# T2 sequence (Q03181 211-439): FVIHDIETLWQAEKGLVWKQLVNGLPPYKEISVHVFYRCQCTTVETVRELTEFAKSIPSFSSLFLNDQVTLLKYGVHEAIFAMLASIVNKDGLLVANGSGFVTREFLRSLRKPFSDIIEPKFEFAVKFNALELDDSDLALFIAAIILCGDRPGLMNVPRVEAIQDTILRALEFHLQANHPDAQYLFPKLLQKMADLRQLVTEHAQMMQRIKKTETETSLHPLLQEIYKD
# T1 sequence (Q07869 239-466): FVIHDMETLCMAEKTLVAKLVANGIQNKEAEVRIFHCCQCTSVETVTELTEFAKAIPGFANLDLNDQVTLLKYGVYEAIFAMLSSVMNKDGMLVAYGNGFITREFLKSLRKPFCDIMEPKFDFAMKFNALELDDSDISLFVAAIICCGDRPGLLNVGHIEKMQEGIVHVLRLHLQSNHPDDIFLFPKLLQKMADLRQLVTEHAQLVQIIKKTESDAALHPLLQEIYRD
compound,measurement,setting,value
"CCC(Cc1ccc(C(=O)NCc2ccc(OC)cc2C(F)(F)F)cc1)C(=O)O (stereo not drawn) [Compound 14c, 2-Ethyl 3-14-(N-(4-methoxy(2-trifluoromethyl)benzyl)benzamide)1 propionic acid]",PPARα activation @10 μM,"PPARα; at 10 μM, compared to GW7647 1 μM",29%
same,EC50 PPARδ,PPARδ,n.t. i.a. i.a. n.t.
same,solubility,[1],500 µM
same,cell viability of HepG2 cells (WST-1),HepG2 cells,did not impair cell viability
same,compound remaining intact after 1 h,[2],96%
same,EC50,hFFA1,14.1 µM
same,EC50,mFFA1,23.4 µM
same,body weight gained more than vehicle treated SHROB,SHROB rats; 8 weeks,approximately 40 g
same,systolic blood pressure lower than vehicle treated SHROB,SHROB rats; 8 weeks,approximately 44 mmHg
same,Body Weight,SHROB rats; [7],600 ± 8 g
same,Fasting Blood Glucose,SHROB rats; [7],83 ± 7 mg/dL
same,Free fatty Acid,SHROB rats; [7],^#322 ± 24 μM
same,Serum Cholesterol,SHROB rats; [7],#4.0 ± 0.7 mM
same,Triglyceride,SHROB rats; [7],^#133 ± 18 mg/DL
same,albuminuria,SHROB rats; [8],59 ± 11 mg/day
same,reduction of glomerular injury,SHROB rats; [8],45%
same,reduction of renal cast and collagen formation,SHROB rats; [8],40-50%
same,reduction of renal inflammation (infiltrating immune cells in the kidney),SHROB rats; [8],20%
"O=C(Nc1ccc(I)cc1)NC1CCCCC1 [CIU, N-cyclohexyl-N′-iodophenyl urea, reference compound]",adipocyte differentiation (Oil-Red O),3T3-L1 fibroblasts,able to start adipocyte differentiation
same,adipocyte differentiation (Oil-Red O),[3],not able to start differentiation
"CCC(Cc1ccc(C(=O)NCc2ccccc2C(F)(F)F)cc1)C(=O)O (stereo not drawn) [Compound 1c, 2-Ethyl 3-[4-(N-((2-trifluoromethyl)benzyl)benzamide)]propionic acid]",IC50,recombinant human sEH,1.6 ± 0.2 µM
same,EC50 PPARα,PPARα; i.a. = inactive,i.a.
same,EC50 PPARδ,PPARδ,i.a.
same,solubility,[1],100 µM
same,cell viability of HepG2 cells (WST-1),HepG2 cells,did not impair cell viability
same,compound remaining intact after 1 h,[2],92%
same,adipocyte differentiation (Oil-Red O),3T3-L1 fibroblasts,dose-dependent effect
same,adipocyte differentiation (Oil-Red O),[3],dose dependent (1-10 μM) effect
same,"expression of PPARγ target genes (GLUT4, Adiponectin, FABP4, LPL)",[4],dose-dependently activated expression of all target genes analysed
same,upregulation of GLUT4 expression,[5]; 1c 10 μM,comparable to the rosiglitazone (2 μM) control
same,"upregulation of Adiponectin, FABP4 and LPL",[5]; 1c stimulation,only minor effects
same,increase of CD36 expression in liver,PPARγ target gene CD36,at least 2 fold
same,EC50,hFFA1,8.32 µM
same,EC50,mFFA1,4.9 µM
same,AUC0→∞,[6],15847 ng·h/mL
same,tmax,[6],30 min
